Results from the supplement of paper PMC6718421.

Tested on: Caenorhabditis elegans
Experiment: animals per well after 6 days (50 L1 seeded); higher = more viable animals (less toxic)
Description: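 About 50 synchronized L1s per well were grown in liquid NGM with E. coli HB101 and twofold serial dilutions (0.12-120 uM) of crystal- or sphere-forming wactives for 6 days at 20 C; animals per well were counted, and overgrown wells (>50 animals) were scored as 100. Values are averages of replicate wells for wild type and sms-5(ok2498).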

CCCc1nc(-c2ccc(-c3ccc(F)cc3)cc2)no1 [wact-390]
animals per well
Conditions	genotype: sms-5(ok2498)	genotype: wild type N2
0.1171875 µM	> 100	> 100
0.234375 µM	> 100	> 100
0.46875 µM	> 100	> 100
0.9375 µM	> 100	> 100
1.875 µM	> 100	56.2
3.75 µM	> 100	4.83
7.5 µM	> 100	3.33
15 µM	> 100	2.83
30 µM	> 100	2.33
60 µM	> 100	0.333
120 µM	92.7	0.667
